According to paper PMC9582434, “Ryanodine receptor-active non-dioxin-like polychlorinated biphenyls cause neurobehavioral deficits in larval zebrafish” (Frontiers in Toxicology, 2022):

Experiments:
[1] = PCB body burden in larvae at 5 dpf by gas chromatography; type: in vivo, zebrafish; conditions: for % uptake (measured uptake/theoretical uptake × 100): averaged across 0.1, 1 and 10 µM, larvae at 5 dpf; for larval body burden relative to the other tested PCBs: exposure 6 hpf to 5 dpf
Protocol: PCB body burden was assessed at 5 dpf by pressurized liquid extraction Dionex ASE200 system (Thermo Scientific, Sunnyvale, CA, United States) ([Wu et al., 2015]). Briefly, zebrafish larvae samples (n = 36–51 per sample) were mixed with diatomaceous earth (2 g) and placed in an extraction cell (33 ml) containing Florisil (60–100 mesh, 12 g, Fisher Scientific, Fair Lawn, NJ, United States). PCB 117 (100 ng) was added to each sample as surrogate recovery standard, and the cells were extracted with hexane-acetone (1:1, v/v) at 100°C and 1,500 psi (10 MPa) with preheat equilibration for 6 min, 35% of cell flush volume and 1 static cycle of 5 min. Method blanks containing only Florisil and diatomaceous earth and sample blanks with naïve (unexposed) and/or DMSO-exposed zebrafish larvae were extracted in parallel with each sample set. The extracts were concentrated to approximately 0.75 ml using a Turbo Vap II (Biotage, Charlotte, NC, United States) and transferred to glass tubes. Samples were further cleaned up, as described previously, to remove sulfur and other impurities ([Kania-Korwel et al., 2007]). All samples were spiked with PCB 204 (100 ng) as internal standard (volume corrector) prior to gas chromatographic analysis.
Analysis of PCBs was performed in the splitless mode on an Agilent 7890 gas chromatograph equipped with a ^63Ni micro electron capture detector (µECD) and a SPB-1 capillary column (length, 60 m; inner diameter, 250 μm; and 0.25 µm film thickness; Supelco, St. Louis, MO, United States) ([Wu et al., 2013]). The following temperature program was used based on a published method ([Kania-Korwel et al., 2011]): hold at 80°C for 1 min, 20°C/min to 215°C, then 0.1°C/min to 219.5°C, and 20°C/min to 280°C, then hold at 280°C for 3 min. A constant helium flow rate of 1 ml/min was used for all analyses. The injector and detector temperatures were 250°C and 300°C, respectively. The ^63Ni-μECD used for the PCB analysis was linear up to concentrations of 1,000 ng/ml for all analytes investigated (R ^2 > 0.999). The recovery of PCB 117 was 83 ± 7% (range: 71–97%). A detailed summary of the limits of detection, limits of quantification, and background levels of the analyzed PCBs is presented in Supplementary Table S1.
The neurotoxic potential of the congeners tested in this study were ranked based on the three endpoints measured in this study: RYR binding, behavior, and body burden. Congeners were ranked relative to each other for each individual endpoint from 1 (highest) to 6 (lowest), and then the three scores for each congener averaged to obtain an overall relative ranking for each congener. Ranking for RYR activation was based on EC2X values and their relative comparisons. Behavior ranking represents the total change from control for each congener across all epochs (L1, D1, L2, and D2) and all days (3, 4, and 5 dpf) tested. AUC values were normalized to the appropriate DMSO control (AUC value/DMSO). Each value was then subtracted from 1 to determine the deviation from the control values [1 − (AUC value/DMSO)]. Absolute values were combined for all concentrations of each congener across all time points (epochs and testing days). PCB body burden was ranked as the percentage uptake using the following calculation: (uptake/total PCB) × 100, where, the uptake values were the measured PCB levels in the samples, and the total PCB values were calculated using the exposure concentration (0.1, 1, or 10 μM) and volume (200 μl). The resulting values were averaged across the three assayed concentrations and rounded to the closest integer to obtain the final ranking order.

RYR = tested on: RYR; design: method as in Pessah et al., 2006; Holland et al., 2017a; conditions: ref Pessah et al., 2006; Holland et al., 2017a; cited from earlier work

| Structure (SMILES) | % uptake (measured uptake/theoretical uptake × 100) [1] | in vitro potency at the RYR (in words) (RYR) | larval body burden relative to the other tested PCBs [1] |
| --- | --- | --- | --- |
| Clc1ccc(-c2ccc(Cl)cc2Cl)cc1 [PCB 28] | 4.5% | negligible |  |
| Clc1ccc(-c2ccc(Cl)c(Cl)c2)c(Cl)c1 [PCB 66] | 5.6% | negligible |  |
| Clc1cccc(-c2c(Cl)ccc(Cl)c2Cl)c1Cl [PCB 84] | 9.2% | potent |  |
| Clc1ccc(Cl)c(-c2c(Cl)ccc(Cl)c2Cl)c1 [PCB 95, 2,2',3,5',6-pentachlorobiphenyl] | 7.4% | potent |  |
| Clc1cc(Cl)c(-c2ccc(Cl)c(Cl)c2Cl)cc1Cl [PCB 138] | 13.8% | moderate | highest |
| Clc1cc(Cl)c(-c2cc(Cl)c(Cl)cc2Cl)cc1Cl [PCB 153, 2,2',4,4',5,5'-Hexachlorobiphenyl] | 1.4% | moderate | lowest |
